Laboratory results as given in patent US20230113037A1 (Bayer Aktiengesellschaft, priority 2019, published 2023).
Read-outs that look alike come from different tables or passages of the source. Blank lines part the entries; values can stand above or below the compound they belong to.

How the values were obtained:
AHR [1] = biological target: T1, AHR (Mus musculus, UniProt P30561); assay: In vitro assay 3: antagonism in mouse cell line (AHR transactivation, firefly luciferase reporter, kynurenic acid prestimulated); format: cell-based
T1 sequence (P30561 1-848 P471L/N533S/M589L): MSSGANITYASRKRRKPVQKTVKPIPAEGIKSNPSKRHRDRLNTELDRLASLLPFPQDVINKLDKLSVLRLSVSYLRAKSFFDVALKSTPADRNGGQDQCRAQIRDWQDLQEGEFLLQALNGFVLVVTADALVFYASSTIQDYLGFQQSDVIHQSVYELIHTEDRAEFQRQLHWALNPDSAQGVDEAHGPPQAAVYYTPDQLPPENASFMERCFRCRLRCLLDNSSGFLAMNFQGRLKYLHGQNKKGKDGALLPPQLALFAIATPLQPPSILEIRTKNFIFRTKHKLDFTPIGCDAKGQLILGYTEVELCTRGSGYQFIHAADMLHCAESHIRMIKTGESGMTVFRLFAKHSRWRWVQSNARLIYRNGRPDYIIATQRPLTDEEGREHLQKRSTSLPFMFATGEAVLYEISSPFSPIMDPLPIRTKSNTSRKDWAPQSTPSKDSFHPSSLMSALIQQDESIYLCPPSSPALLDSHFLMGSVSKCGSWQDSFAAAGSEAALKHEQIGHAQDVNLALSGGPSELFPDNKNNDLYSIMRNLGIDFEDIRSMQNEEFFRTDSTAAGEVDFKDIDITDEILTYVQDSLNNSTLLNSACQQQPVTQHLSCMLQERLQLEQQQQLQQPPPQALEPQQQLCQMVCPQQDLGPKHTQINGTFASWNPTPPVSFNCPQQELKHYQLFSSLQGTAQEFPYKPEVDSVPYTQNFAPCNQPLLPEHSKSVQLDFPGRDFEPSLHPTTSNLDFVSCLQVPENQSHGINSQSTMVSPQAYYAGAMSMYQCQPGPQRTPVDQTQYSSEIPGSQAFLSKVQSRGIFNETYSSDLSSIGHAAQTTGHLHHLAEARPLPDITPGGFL
How it was run: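 Kynurenic acid-prestimulated mouse reporter cells; stable AHR-inducible firefly luc construct with DRE sites in promoter. No-agonist wells = positive inhibition ctrl. Luminescence normalized to pos/neg ctrls; n>1 reported as mean or median.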

AHR [2] = biological target: T2, AHR (Homo sapiens, UniProt P35869); assay: In vitro assay 1: antagonism in human cell line (AHR transactivation, firefly luciferase reporter, kynurenic acid prestimulated); format: cell-based; conditions: AHR Antagonism Human IC50 [M]
T2 construct: U87 MG glioblastoma cells (ATCC #HTB-14) endogenously expressing AHR; endogenous in cells; host or cells: U87 MG glioblastoma cells (ATCC #HTB-14)
T2 sequence (P35869 11-848): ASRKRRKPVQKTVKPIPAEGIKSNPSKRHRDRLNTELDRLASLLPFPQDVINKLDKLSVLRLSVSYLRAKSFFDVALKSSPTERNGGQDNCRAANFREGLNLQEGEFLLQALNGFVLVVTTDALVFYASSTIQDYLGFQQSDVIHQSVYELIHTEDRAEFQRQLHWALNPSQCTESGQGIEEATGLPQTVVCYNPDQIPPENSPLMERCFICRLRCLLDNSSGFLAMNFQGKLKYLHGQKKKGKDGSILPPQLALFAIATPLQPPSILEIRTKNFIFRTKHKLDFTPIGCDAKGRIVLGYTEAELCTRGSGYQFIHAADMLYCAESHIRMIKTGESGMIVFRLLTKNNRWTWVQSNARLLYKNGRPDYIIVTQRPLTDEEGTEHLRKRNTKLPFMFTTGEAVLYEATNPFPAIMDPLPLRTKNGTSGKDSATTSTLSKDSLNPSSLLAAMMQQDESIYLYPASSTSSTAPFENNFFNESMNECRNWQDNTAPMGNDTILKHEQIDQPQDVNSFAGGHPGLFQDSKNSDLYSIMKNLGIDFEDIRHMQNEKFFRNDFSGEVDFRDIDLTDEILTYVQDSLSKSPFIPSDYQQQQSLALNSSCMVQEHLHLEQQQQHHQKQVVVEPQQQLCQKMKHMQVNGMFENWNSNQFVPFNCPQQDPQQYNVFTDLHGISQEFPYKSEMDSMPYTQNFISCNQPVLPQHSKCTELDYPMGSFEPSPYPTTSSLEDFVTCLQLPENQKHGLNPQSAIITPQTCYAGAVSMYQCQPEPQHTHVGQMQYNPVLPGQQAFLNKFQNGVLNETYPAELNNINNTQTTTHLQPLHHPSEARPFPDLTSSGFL
How it was run: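 Antagonism measured as loss of kynurenic acid-driven firefly luciferase from DRE reporter in stably transfected U87 MG cells; constitutive Renilla signal monitors cytotoxicity. Positive/negative control normalization, staurosporine 5 μM with 150 μM kynurenic acid as inhibition control; replicates given as mean or median.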

[3] = mouse Hepa 1c1c7 cells, 200 μM kynurenic acid, 20 hours, read-out: AHR Antagonism Mouse IC50
[4] = Hepa 1c1c7 cells, 200 μM kynurenic acid, 20 hours, firefly luciferase reporter, read-out: AHR Antagonism Mouse IC50

SMILES: COc1cccc(-c2nc3c4ccccc4nc(N[C@@H](CO)C(N)=O)n3n2)c1 [Example 85, N^2-[2-(3-methoxyphenyl)[1,2,4]triazolo[1,5-c]quinazolin-5-yl]-L-serinamide]
- IC50 (AHR [1]; [3]): 229 nM
- IC50 (AHR [2]): 4.95e-07 M

SMILES: CC[C@@H](Nc1nc2ccccc2c2nc(-c3cccc(S(C)(=O)=O)c3)nn12)C(N)=O [Example 378, (2R)-2-({2-[3-(methanesulfonyl)phenyl][1,2,4]triazolo[1,5-c]quinazolin-5-yl}amino)butanamide]
- IC50 (AHR [1]; [3]): 171 nM
- IC50 (AHR [2]): 6.25e-07 M

SMILES: O=C1NCCCC[C@H]1Nc1nc2c(C(F)(F)F)cccc2c2nc(-c3cn(C4CC4)nc3C(F)F)nn12 [Example 743, (3R)-3-({2-[1-cyclopropyl-3-(difluoromethyl)-1H-pyrazol-4-yl]-7-(trifluoromethyl)[1,2,4]triazolo[1,5-c]quinazolin-5-yl}amino)azepan-2-one]
- IC50 (AHR [1]; [3]): 1.73 nM
- IC50 (AHR [2]): 1.26e-09 M

SMILES: COc1ccc(-c2nc3c4cccc(Br)c4nc(N[C@@H]4CS(=O)(=O)CCNC4=O)n3n2)cc1 [Example 851, (6S)-6-{[7-bromo-2-(4-methoxyphenyl)[1,2,4]triazolo[1,5-c]quinazolin-5-yl]amino}-1λ^6,4-thiazepane-1,1,5-trione]
- IC50 (AHR [1]; read-out: AHR Antagonism Mouse IC50, Hepa 1c1c7 cells, 200 μM kynurenic acid, 20 hours, firefly luciferase reporter): 1.76 nM
- IC50 (AHR [2]; firefly luciferase reporter): 9.17e-10 M

SMILES: COC(=O)[C@H](Nc1nc2ccccc2c2nc(-c3cccc(OC)c3)nn12)C(C)C [Example 104, methyl N-[2-(3-methoxyphenyl)[1,2,4]triazolo[1,5-c]quinazolin-5-yl]-D-valinate]
- IC50 (AHR [1]; [3]): 2.43 nM
- IC50 (AHR [2]): 1.12e-08 M

SMILES: N#Cc1ccc(-c2nc3c4cccc(Br)c4nc(N[C@@H]4CNCCNC4=O)n3n2)cc1 [Example 717, 4-(7-bromo-5-{[(6R)-5-oxo-1,4-diazepan-6-yl]amino}[1,2,4]triazolo[1,5-c]quinazolin-2-yl)benzonitrile]
- IC50 (AHR [1]; [3]): 0.95 nM
- IC50 (AHR [2]): 7.05e-10 M

SMILES: CC[C@@H](Nc1nc2ccccc2c2nc(-c3ccccc3OC(F)(F)F)nn12)C(N)=O [Example 469, (2R)-2-({2-[2-(trifluoromethoxy)phenyl][1,2,4]triazolo[1,5-c]quinazolin-5-yl}amino)butanamide]
- IC50 (AHR [1]; [3]): 1.2 nM
- IC50 (AHR [2]): 1.64e-08 M

SMILES: C[C@@H](Nc1nc2c(Br)cccc2c2nc(-c3cnn(C)c3)nn12)C(=O)NCCN1CCNCC1 [Example 993, N^2-[7-bromo-2-(1-methyl-1H-pyrazol-4-yl)[1,2,4]triazolo[1,5-c]quinazolin-5-yl]-N-[2-(piperazin-1-yl)ethyl]-D-alaninamide-hydrogen chloride (1/2)]
- IC50 (AHR [1]; [4]): 4590 nM
- IC50 (AHR [2]; firefly luciferase reporter): 5.88e-07 M

SMILES: COc1ccc(-c2nc3c4cccc(Br)c4nc(N[C@@H]4CCNC4=O)n3n2)cc1 [Example 218, (3R)-3-{[7-bromo-2-(4-methoxyphenyl)[1,2,4]triazolo[1,5-c]quinazolin-5-yl]amino}pyrrolidin-2-one]
- IC50 (AHR [1]; [3]): 29.4 nM
- IC50 (AHR [2]): 8.68e-09 M

SMILES: Cn1ccc(-c2nc3c4ccccc4nc(N[C@@H]4CNCCNC4=O)n3n2)n1 [Example 257, (6R)-6-{[2-(1-methyl-1H-pyrazol-3-yl)[1,2,4]triazolo[1,5-c]quinazolin-5-yl]amino}-1,4-diazepan-5-one]
- IC50 (AHR [1]; [3]): 12100 nM
- IC50 (AHR [2]): 6.29e-06 M

SMILES: CC(C)[C@@H](Nc1nc2ccccc2c2nc(-c3ccccc3)nn12)C(N)=O [Example 3, N^2-(2-phenyl[1,2,4]triazolo[1,5-c]quinazolin-5-yl)-D-valinamide]
- IC50 (AHR [1]; [3]): 0.428 nM
- IC50 (AHR [2]): 1.82e-09 M

SMILES: C[C@@H](Nc1nc2c(Br)cccc2c2nc(-c3cnn(C)c3)nn12)C(=O)N1CC2(CN(C)C2)C1 [Example 919, (2R)-2-{[7-bromo-2-(1-methyl-1H-pyrazol-4-yl)[1,2,4]triazolo[1,5-c]quinazolin-5-yl]amino}-1-(6-methyl-2,6-diazaspiro[3.3]heptan-2-yl)propan-1-one]
- IC50 (AHR [1]; [4]): 613 nM
- IC50 (AHR [2]; firefly luciferase reporter): 1.18e-06 M

SMILES: COc1cccc(-c2nc3c4ccccc4nc(N[C@H](CCS(C)(=O)=O)C(N)=O)n3n2)c1 [Example 113, (2R)-2-{[2-(3-methoxyphenyl)[1,2,4]triazolo[1,5-c]quinazolin-5-yl]amino}-4-(methylsulfonyl)butanamide]
- IC50 (AHR [1]; [3]): 719 nM
- IC50 (AHR [2]): 1.58e-05 M

More lines, now with the values ahead:

- IC50 (AHR [1]; [3]): 119 nM
- IC50 (AHR [2]): 4.16e-08 M
SMILES: COc1ccc(-c2nc3c4ccc(C#N)cc4nc(N[C@@H]4CCCCNC4=O)n3n2)cc1 [Example 400, 2-(4-Methoxyphenyl)-5-{[(3R)-2-oxoazepan-3-yl]amino}[1,2,4]triazolo[1,5-c]quinazoline-8-carbonitrile]

- IC50 (AHR [1]; [3]): 0.51 nM
- IC50 (AHR [2]): 2.92e-09 M
SMILES: CN(C)c1cccc(-c2nc3c4ccccc4nc(N[C@@H]4CCCCNC4=O)n3n2)c1 [Example 446, (3R)-3-({2-[3-(dimethylamino)phenyl][1,2,4]triazolo[1,5-c]quinazolin-5-yl}amino)azepan-2-one]

- IC50 (AHR [1]; [3]): 1.45 nM
- IC50 (AHR [2]): 7.41e-10 M
SMILES: COc1ccc(-c2nc3c4cccc(F)c4nc(N[C@@H]4CCCCNC4=O)n3n2)cc1 [Example 138, (3R)-3-{[7-fluoro-2-(4-methoxyphenyl)[1,2,4]triazolo[1,5-c]quinazolin-5-yl]amino}azepan-2-one]

- IC50 (AHR [1]; [3]): 27.3 nM
- IC50 (AHR [2]): 3.8e-07 M
SMILES: CS(=O)(=O)c1ccccc1-c1nc2c3ccccc3nc(N[C@@H]3CCCCNC3=O)n2n1 [Example 649, (3R)-3-({2-[2-(methanesulfonyl)phenyl][1,2,4]triazolo[1,5-c]quinazolin-5-yl}amino)azepan-2-one]

- IC50 (AHR [1]; [3]): 78.3 nM
- IC50 (AHR [2]): 9.89e-07 M
SMILES: O=C1NCCCC[C@@H]1Nc1nc2ccccc2c2nc(-c3ccccc3OC(F)(F)F)nn12 [Example 457, (3S)-3-({2-[2-(trifluoromethoxy)phenyl][1,2,4]triazolo[1,5-c]quinazolin-5-yl}amino)azepan-2-one]

- IC50 (AHR [1]; [3]): 18.1 nM
- IC50 (AHR [2]): 6.11e-08 M
SMILES: COCCn1cc(-c2nc3c4ccccc4nc(N[C@@H]4CCCCNC4=O)n3n2)cn1 [Example 432, (3R)-3-({2-[1-(2-methoxyethyl)-1H-pyrazol-4-yl][1,2,4]triazolo[1,5-c]quinazolin-5-yl}amino)azepan-2-one]

- IC50 (AHR [1]; [3]): 85 nM
- IC50 (AHR [2]): 6.33e-08 M
SMILES: Cc1cc(-c2nc3c4ccccc4nc(N[C@@H]4CCCCNC4=O)n3n2)n[nH]1 [Example 64, (3R)-3-{[2-(5-methyl-1H-pyrazol-3-yl)[1,2,4]triazolo[1,5-c]quinazolin-5-yl]amino}azepan-2-one]

- IC50 (AHR [1]; [3]): 310 nM
- IC50 (AHR [2]): 3.21e-08 M
SMILES: COc1ccc(-c2nc3c4c(OC)cccc4nc(N[C@@H]4CCCCNC4=O)n3n2)cc1 [Example 245, (3R)-3-{[10-methoxy-2-(4-methoxyphenyl)[1,2,4]triazolo[1,5-c]quinazolin-5-yl]amino}azepan-2-one]

- IC50 (AHR [1]; [3]): 111 nM
- IC50 (AHR [2]): 5.32e-08 M
SMILES: COc1ccc(-c2nc3c4cccc(Br)c4nc(N[C@@H]4CCCNC4=O)n3n2)cc1 [Example 223, (3R)-3-{[7-bromo-2-(4-methoxyphenyl)[1,2,4]triazolo[1,5-c]quinazolin-5-yl]amino}piperidin-2-one]
